Test results taken from PubChem BioAssay AID2060892 (Molecular Pharmacology Branch, DTP, NCI, 2025).

System: HOP-62 complex spheroids with HUVEC/MSC, viability
Assay: Anticancer human tumor HOP-62 cell line growth inhibition [RAS];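 also: spheroids exposed to agents for seven days before readout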;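 as to viability, T/C: 100% = DMSO vehicle control viability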
Settings: for IC50: curve of first compound; for viability, T/C: stronger effect = lower value
Summary of the method: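 Multi-cell-type spheroids: tumor cells plus HUVEC endothelial cells and mesenchymal stem cells. RAS-pathway inhibitors were combined with targeted agents, each dosed in half-log steps down from clinical Cmax, or from 10 microM when Cmax was unknown.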

[1] = second compound 0.000949 µM, first compound 0.0316 µM
[2] = second compound 0.000949 µM, first compound 0.1 µM
[3] = second compound 0.000949 µM, first compound 0.316 µM
[4] = second compound 0.000949 µM, first compound 1 µM
[5] = second compound 0.000949 µM, first compound 3.16 µM
[6] = second compound 0.000949 µM, first compound 10 µM
[7] = second compound 0.003 µM, first compound 0.0316 µM
[8] = second compound 0.003 µM, first compound 0.1 µM
[9] = second compound 0.003 µM, first compound 0.316 µM
[10] = second compound 0.003 µM, first compound 1 µM
[11] = second compound 0.003 µM, first compound 3.16 µM
[12] = second compound 0.003 µM, first compound 10 µM
[13] = second compound 0.00949 µM, first compound 0.0316 µM
[14] = second compound 0.00949 µM, first compound 0.1 µM
[15] = second compound 0.00949 µM, first compound 0.316 µM
[16] = second compound 0.00949 µM, first compound 1 µM
[17] = second compound 0.00949 µM, first compound 3.16 µM
[18] = second compound 0.00949 µM, first compound 10 µM
[19] = second compound 0.03 µM, first compound 0.0316 µM
[20] = second compound 0.03 µM, first compound 0.1 µM
[21] = second compound 0.03 µM, first compound 0.316 µM
[22] = second compound 0.03 µM, first compound 1 µM
[23] = second compound 0.03 µM, first compound 3.16 µM
[24] = second compound 0.03 µM, first compound 10 µM
[25] = second compound 0.0949 µM, first compound 0.0316 µM
[26] = second compound 0.0949 µM, first compound 0.1 µM
[27] = second compound 0.0949 µM, first compound 0.316 µM
[28] = second compound 0.0949 µM, first compound 1 µM
[29] = second compound 0.0949 µM, first compound 3.16 µM
[30] = second compound 0.0949 µM, first compound 10 µM
[31] = second compound 0.3 µM, first compound 0.0316 µM
[32] = second compound 0.3 µM, first compound 0.1 µM
[33] = second compound 0.3 µM, first compound 0.316 µM
[34] = second compound 0.3 µM, first compound 1 µM
[35] = second compound 0.3 µM, first compound 3.16 µM
[36] = second compound 0.3 µM, first compound 10 µM

## CC(C)NCC(C(=O)N1CCN(c2ncnc3c2C(C)CC3O)CC1)c1ccc(Cl)cc1 (centres undefined) + CCn1c(-c2cc(N3CCN(C)CC3)cnc2C(C)OC)c2c3cc(ccc31)-c1csc(n1)CC(NC(=O)C1CC1C)C(=O)N1CCCC(N1)C(=O)OCC(C)(C)C2
Second compound 0.000949 µM
  IC50: 3880 nM
Second compound 0.003 µM
  IC50: 2300 nM
Second compound 0.00949 µM
  IC50: 587 nM
Second compound 0.03 µM
  IC50: < 31.6 nM
Second compound 0.0949 µM
  IC50: < 31.6 nM
Second compound 0.3 µM
  IC50: < 31.6 nM
[1]
  viability, T/C: 121%
[2]
  viability, T/C: 119%
[3]
  viability, T/C: 80.8%
[4]
  viability, T/C: 88.9%
[5]
  viability, T/C: 60%
[6]
  viability, T/C: 19.1%
[7]
  viability, T/C: 100%
[8]
  viability, T/C: 95%
[9]
  viability, T/C: 71.2%
[10]
  viability, T/C: 71.3%
[11]
  viability, T/C: 44.1%
[12]
  viability, T/C: 17%
[13]
  viability, T/C: 74.7%
[14]
  viability, T/C: 56.9%
[15]
  viability, T/C: 58.5%
[16]
  viability, T/C: 48.6%
[17]
  viability, T/C: 21.5%
[18]
  viability, T/C: 12.3%
[19]
  viability, T/C: 46.9%
[20]
  viability, T/C: 46.3%
[21]
  viability, T/C: 38.3%
[22]
  viability, T/C: 31.7%
[23]
  viability, T/C: 14.8%
[24]
  viability, T/C: 15.3%
[25]
  viability, T/C: 34.7%
[26]
  viability, T/C: 40.6%
[27]
  viability, T/C: 30.4%
[28]
  viability, T/C: 30.9%
[29]
  viability, T/C: 15%
[30]
  viability, T/C: 13.9%
[31]
  viability, T/C: 34.2%
[32]
  viability, T/C: 38.6%
[33]
  viability, T/C: 29.6%
[34]
  viability, T/C: 22.4%
[35]
  viability, T/C: 19.2%
[36]
  viability, T/C: 14.5%

## CC(Nc1ccc2c(c1)OCCn1cc(N3C(=O)OCC3C(F)F)nc1-2)C(N)=O (centres undefined) + CCn1c(-c2cc(N3CCN(C)CC3)cnc2C(C)OC)c2c3cc(ccc31)-c1csc(n1)CC(NC(=O)C1CC1C)C(=O)N1CCCC(N1)C(=O)OCC(C)(C)C2
Second compound 0.000949 µM
  IC50: 1370 nM
Second compound 0.003 µM
  IC50: 365 nM
Second compound 0.00949 µM
  IC50: < 31.6 nM
Second compound 0.03 µM
  IC50: < 31.6 nM
Second compound 0.0949 µM
  IC50: < 31.6 nM
Second compound 0.3 µM
  IC50: < 31.6 nM
[1]
  viability, T/C: 91.4%
[2]
  viability, T/C: 69.2%
[3]
  viability, T/C: 53.9%
[4]
  viability, T/C: 61%
[5]
  viability, T/C: 49.9%
[6]
  viability, T/C: 25.9%
[7]
  viability, T/C: 75.9%
[8]
  viability, T/C: 52.7%
[9]
  viability, T/C: 47.5%
[10]
  viability, T/C: 46.2%
[11]
  viability, T/C: 36.7%
[12]
  viability, T/C: 15.7%
[13]
  viability, T/C: 48.4%
[14]
  viability, T/C: 36.8%
[15]
  viability, T/C: 36.1%
[16]
  viability, T/C: 27.4%
[17]
  viability, T/C: 19.2%
[18]
  viability, T/C: 12.6%
[19]
  viability, T/C: 33.1%
[20]
  viability, T/C: 23.2%
[21]
  viability, T/C: 22.5%
[22]
  viability, T/C: 21.5%
[23]
  viability, T/C: 13.8%
[24]
  viability, T/C: 14.7%
[25]
  viability, T/C: 27.1%
[26]
  viability, T/C: 24.8%
[27]
  viability, T/C: 20.5%
[28]
  viability, T/C: 21.5%
[29]
  viability, T/C: 12.8%
[30]
  viability, T/C: 14%
[31]
  viability, T/C: 32.5%
[32]
  viability, T/C: 20.1%
[33]
  viability, T/C: 21.3%
[34]
  viability, T/C: 17.3%
[35]
  viability, T/C: 13.4%
[36]
  viability, T/C: 15.7%
